Reference: DBAASP
≈ marks a conversion by molar mass, not a printed value. Where “and” joins values, the source holds several entries; their conditions need not be identical. Identical values can stand only once.

Legend:
Assay in all cases: ≥ marks a high value that may be exact or a test limit, other limits are often not marked, values filed in µg/mL are converted to µM
[1] = test system: Staphylococcus aureus ATCC 25923
[2] = test system: Pseudomonas aeruginosa CMCCB 10104
[3] = test system: Candida albicans ATCC 2002
[4] = test system: Escherichia coli ATCC 25922
[5] = test system: Klebsiella pneumoniae ATCC 13883
[6] = test system: Salmonella enterica subsp. enterica serovar Typhimurium ATCC 14028
[7] = test system: Acinetobacter baumannii ATCC 19606
[8] = test system: Pseudomonas aeruginosa PAO1
[9] = test system: Staphylococcus aureus USA 300
[10] = test system: Bacillus subtilis KCTC 3068
[11] = test system: Staphylococcus epidermidis KCTC 1917
[12] = test system: Salmonella typhimurium KCTC 1926
[13] = test system: Pseudomonas aeruginosa KCTC 1637
[14] = test system: Escherichia coli KCTC 1682
[15] = test system: Staphylococcus aureus KCTC 1621

MIC [1] | MIC [2] | MIC [3] | MIC [4] | SMILES | also measured
1.82 µM (≈ 5.9 µg/mL) | 3.65 µM (≈ 11.8 µg/mL) | 3.65 µM (≈ 11.8 µg/mL) | 3.65 µM (≈ 11.8 µg/mL) | CC[C@H](C)[C@H](NC(=O)[C@H](CC(C)C)NC(=O)[C@H](CC(C)C)NC(=O)[C@H](CC(=O)O)NC(=O)[C@H](CCCCN)NC(=O)[C@@H](NC(=O)[C@@H](NC(=O)CNC(=O)[C@H](CC(C)C)NC(=O)[C@@H](NC(=O)[C@@H](N)CO)C(C)C)[C@@H](C)O)C(C)C)C(=O)NCC(=O)N[C@@H](C)C(=O)NCC(=O)N[C@@H](CCCCN)C(=O)N[C@@H](CO)C(=O)N[C@@H](C)C(=O)N[C@@H](C)C(=O)N[C@@H](CCC(N)=O)C(=O)N[C@@H](CO)C(=O)N[C@H](C(=O)N[C@@H](CC(C)C)C(=O)N[C@H](C(=O)N[C@@H](C)C(=O)N[C@@H](CC(N)=O)C(=O)N[C@@H](CO)C(=O)N[C@H]1CSSC[C@@H](C(=O)O)NC(=O)[C@H](CO)NC(=O)[C@H](CC(N)=O)NC(=O)[C@H](CO)NC(=O)[C@H](CC(C)C)NC(=O)[C@H](CCCCN)NC1=O)[C@@H](C)O)C(C)C [SVLGTVKDLLIGAGKSAAQSVLTANSCKLSNSC] | –
6.81 µM (≈ 22.4 µg/mL) | 13.6 µM (≈ 44.8 µg/mL) | 3.4 µM (≈ 11.2 µg/mL) | 3.4 µM (≈ 11.2 µg/mL) | CC[C@H](C)[C@H](NC(=O)[C@H](CC(C)C)NC(=O)[C@H](CC(C)C)NC(=O)[C@H](CC(N)=O)NC(=O)[C@H](CCCCN)NC(=O)[C@@H](NC(=O)[C@@H](NC(=O)[C@H](C)NC(=O)[C@H](CC(C)C)NC(=O)[C@@H](NC(=O)CN)C(C)C)[C@@H](C)O)C(C)C)C(=O)NCC(=O)N[C@H](C(=O)NCC(=O)N[C@@H](CC(=O)O)C(=O)NCC(=O)N[C@@H](C)C(=O)N[C@@H](C)C(=O)N[C@@H](CCC(N)=O)C(=O)N[C@@H](CO)C(=O)N[C@H](C(=O)N[C@@H](CC(C)C)C(=O)N[C@@H](CCCCN)C(=O)N[C@H](C(=O)N[C@@H](CC(C)C)C(=O)N[C@@H](CO)C(=O)N[C@H]1CSSC[C@@H](C(=O)O)NC(=O)[C@H](CC(=O)O)NC(=O)[C@H](CC(N)=O)NC(=O)[C@H](CO)NC(=O)[C@H](CC(C)C)NC(=O)[C@H](CCCCN)NC1=O)[C@@H](C)O)C(C)C)[C@@H](C)O [GVLATVKNLLIGTGDGAAQSVLKTLSCKLSNDC] | –
3.52 µM (≈ 11.6 µg/mL) | 7.05 µM (≈ 23.2 µg/mL) | 1.76 µM (≈ 5.8 µg/mL) | 1.76 µM (≈ 5.8 µg/mL) | CC[C@H](C)[C@H](NC(=O)[C@H](CC(C)C)NC(=O)[C@H](CC(C)C)NC(=O)[C@H](CC(=O)O)NC(=O)[C@H](CCCCN)NC(=O)[C@@H](NC(=O)[C@@H](NC(=O)CNC(=O)[C@H](CC(C)C)NC(=O)[C@@H](NC(=O)CN)C(C)C)[C@@H](C)O)C(C)C)C(=O)NCC(=O)N[C@@H](C)C(=O)NCC(=O)N[C@@H](CCCCN)C(=O)N[C@@H](CO)C(=O)N[C@@H](C)C(=O)N[C@@H](C)C(=O)N[C@@H](CCC(N)=O)C(=O)N[C@@H](CO)C(=O)N[C@H](C(=O)N[C@@H](CC(C)C)C(=O)N[C@@H](CCCCN)C(=O)N[C@H](C(=O)N[C@@H](CC(C)C)C(=O)N[C@@H](CO)C(=O)N[C@H]1CSSC[C@@H](C(=O)O)NC(=O)[C@H](CC(=O)O)NC(=O)[C@H](CC(N)=O)NC(=O)[C@H](CO)NC(=O)[C@H]([C@@H](C)CC)NC(=O)[C@H](CCCCN)NC1=O)[C@@H](C)O)[C@@H](C)O [GVLGTVKDLLIGAGKSAAQSTLKTLSCKISNDC] | –

Second part, the compound before the results:

SMILES | MIC [1] | MIC [2] | MIC [3] | MIC [4] | also measured
CC[C@H](C)[C@H](NC(=O)[C@H](CCCCN)NC(=O)[C@H](CCCCN)NC(=O)CNC(=O)[C@H](CCSC)NC(=O)[C@H](CO)NC(=O)[C@@H](NC(=O)[C@@H](NC(=O)[C@H](CC(N)=O)NC(=O)CNC(=O)[C@H](CC(C)C)NC(=O)[C@H](Cc1ccccc1)NC(=O)[C@@H](N)C(C)C)[C@@H](C)CC)C(C)C)C(=O)O [VFLGNIVSMGKKI] | > 142 µM | ≥ 142 µM | ≥ 142 µM | > 142 µM | –
CC(C)C[C@H](NC(=O)[C@H](CCCN=C(N)N)NC(=O)[C@H](CCCN=C(N)N)NC(=O)[C@H](C)NC(=O)[C@H](Cc1c[nH]c2ccccc12)NC(=O)CNC(=O)[C@H](CCCN=C(N)N)NC(=O)[C@@H](N)CCCN=C(N)N)C(=O)N[C@@H](C)C(=O)N[C@@H](C)C(=O)N[C@@H](C)C(=O)N[C@@H](Cc1ccc(O)cc1)C(=O)NCC(=O)N[C@@H](CCCN=C(N)N)C(=O)N[C@@H](CCCN=C(N)N)C(N)=O [RRGWARRLAAAYGRR] | > 30 µM | – | – | 18.1 µM and 30 µM | MIC [5]: 30 µM (≈ 54.5 µg/mL); MIC [6]: > 30 µM; MIC [7]: 25.4 µM and 30 µM
CC(C)C[C@H](NC(=O)[C@H](CC(C)C)NC(=O)[C@H](CCCCN)NC(=O)CNC(=O)[C@H](CC(C)C)NC(=O)[C@H](C)NC(=O)[C@H](CO)NC(=O)[C@H](CC(C)C)NC(=O)[C@H](CC(C)C)NC(=O)[C@H](CO)NC(=O)[C@H](CC(C)C)NC(=O)[C@H](CC(C)C)NC(=O)CN)C(N)=O [GLLSLLSALGKLL] | – | – | – | > 25 µM | MIC [5]: 25 µM (≈ 32.4 µg/mL); MIC [8]: > 25 µM; MIC [9]: 1.56 µM (≈ 2.02 µg/mL)
CC[C@H](C)[C@H](NC(=O)[C@H](Cc1ccccc1)NC(=O)[C@H](CCCN=C(N)N)NC(=O)[C@@H](NC(=O)[C@@H]1CCCN1C(=O)[C@H](CO)NC(=O)[C@H](CC(C)C)NC(=O)[C@H](C)NC(=O)[C@H](C)NC(=O)[C@H](CCCCN)NC(=O)[C@H](CC(N)=O)NC(=O)[C@H](CCSC)NC(=O)CNC(=O)[C@@H](NC(=O)[C@H](CCC(N)=O)NC(=O)[C@H](CC(=O)O)NC(=O)[C@H](C)NC(=O)[C@@H](N)CO)[C@@H](C)O)[C@@H](C)CC)C(=O)N[C@@H](CO)C(=O)N[C@@H](CCCCN)C(=O)N[C@@H](CO)C(=O)N[C@H](C(=O)O)C(C)C [SADQTGMNKAALSPIRFISKSV] | > 86.1 µM | ≥ 86.1 µM | ≥ 86.1 µM | > 86.1 µM | –
CC(C)C[C@H](NC(=O)[C@H](CC(C)C)NC(=O)[C@H](CCCCN)NC(=O)[C@H](CCCCN)NC(=O)[C@H](Cc1c[nH]c2ccccc12)NC(=O)[C@H](CC(C)C)NC(=O)[C@H](CCCCN)NC(=O)[C@H](CCCCN)NC(=O)[C@H](CC(C)C)NC(=O)[C@@H](N)CCCCN)C(=O)N[C@@H](CCCCN)C(N)=O [KLKKLWKKLLK] | – | – | – | – | MIC [10]: 8.77 µM and 17.5 µM
CC[C@H](C)[C@H](NC(=O)[C@H](CC(C)C)NC(=O)CN)C(=O)N[C@@H](CC(=O)O)C(=O)N[C@H](C(=O)N[C@H](C(=O)N[C@@H](CCCCN)C(=O)N[C@@H](CC(N)=O)C(=O)N[C@@H](CCSC)C(=O)N[C@@H](C)C(=O)N[C@@H](CC(C)C)C(=O)N[C@@H](CC(N)=O)C(=O)N[C@@H](C)C(=O)N[C@@H](C)C(=O)N[C@@H](CCCCN)C(=O)N[C@@H](CO)C(=O)N[C@@H](C)C(=O)NCC(=O)N[C@H](C(=O)N[C@@H](CO)C(=O)N[C@H](C(=O)N[C@@H](CC(C)C)C(=O)N[C@@H](CC(N)=O)C(=O)N[C@H](C(=O)N[C@@H](CC(C)C)C(=O)N[C@@H](CO)C(=O)N[C@H]1CSSC[C@@H](C(=O)O)NC(=O)[C@H]([C@@H](C)O)NC(=O)[C@H](CCCCN)NC(=O)[C@H](CO)NC(=O)[C@H](CC(C)C)NC(=O)[C@H](CCCCN)NC1=O)[C@@H](C)O)C(C)C)C(C)C)[C@@H](C)CC)[C@@H](C)O [GLIDTIKNMALNAAKSAGVSVLNTLSCKLSKTC] | 6.12 µM (≈ 20.6 µg/mL) | 12.2 µM (≈ 41.2 µg/mL) | 3.06 µM (≈ 10.3 µg/mL) | 6.12 µM (≈ 20.6 µg/mL) | –
CC(C)C[C@H](NC(=O)[C@H](Cc1ccccc1)NC(=O)[C@H](CCCN=C(N)N)NC(=O)[C@H](CCCCN)NC(=O)[C@H](Cc1c[nH]c2ccccc12)NC(=O)[C@H](CCCN=C(N)N)NC(=O)[C@H](CCC(N)=O)NC(=O)[C@@H](NC(=O)[C@H](Cc1c[nH]c2ccccc12)NC(=O)[C@H](CCCN=C(N)N)NC(=O)[C@H](CCCCN)NC(=O)[C@@H](N)Cc1ccccc1)C(C)C)C(=O)N[C@@H](CCCN=C(N)N)C(N)=O [FKRWVQRWKRFLR] | – | – | – | – | MIC [11]: 4 µM (≈ 7.62 µg/mL); MIC [12]: 2 µM (≈ 3.81 µg/mL); MIC [13]: 16 µM (≈ 30.5 µg/mL); MIC [14]: 4 µM (≈ 7.62 µg/mL); MIC [15]: 2 µM (≈ 3.81 µg/mL); MIC [10]: 2 µM (≈ 3.81 µg/mL)
